Measured values published in patent US5623049A (Bayer Aktiengesellschaft, priority 1993, dated 1997).

What was measured:
[1] = Stability towards nucleases: blood; assay type: in vitro ADME; conditions: 75 μg of oligomer, lysed blood, nuclease buffer, 37° C., 3 hours; also: key: '+' denotes stability; no enzymic degradation
Experimental: (§1) Cell extracts from T-lymphocytes and blood were also employed for the stability investigations in addition to the purified, defined nucleases. For this purpose, 50 ml of cell suspension were centrifuged down at 2000 rpm, taken up in 500 μl of Tris/HCl buffer, pH 7.5; 40 mM CaCl2, and lysed with 5 μl of 20% SDS. Following dialysis against 0.1 M Tris/HCl, pH 7.5; 40 mM CaCl2, and a change of buffer after 4 hours, 5 μl were employed directly in the test. Blood was employed directly following lysis with doubly distilled H2 O. A 25mer oligonucleotide diester was employed as the positive control for digestion by the nucleases.
(§2) Subsequently, the gel was analysed by UV shadowing. […] The oligomers are stable towards the nucleases and cell extracts which were tested.

Proteinase K = Proteinase K (Parengyodontium album, UniProt P06873); experiment: Stability towards proteases: Proteinase K; assay type: in vitro ADME; conditions: 75 μg of oligomer, 5 μl of protease, 37° C., 3 hours; PAGE, UV shadowing, silver staining; also: key: '+' denotes stability; no enzymic degradation
Proteinase K, sequence (P06873 106-384): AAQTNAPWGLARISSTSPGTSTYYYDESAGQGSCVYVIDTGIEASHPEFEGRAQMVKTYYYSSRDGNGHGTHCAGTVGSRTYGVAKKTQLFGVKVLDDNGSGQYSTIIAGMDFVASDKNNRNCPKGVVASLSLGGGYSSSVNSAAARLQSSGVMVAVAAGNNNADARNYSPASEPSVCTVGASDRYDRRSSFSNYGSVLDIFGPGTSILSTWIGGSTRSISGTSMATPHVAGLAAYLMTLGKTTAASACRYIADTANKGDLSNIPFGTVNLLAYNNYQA
Experimental: (§3) Subsequently, the gel was analysed by UV shadowing.

Trypsin = experiment: Stability towards proteases: Trypsin; assay type: in vitro ADME; conditions: 75 μg of oligomer, 5 μl of protease, 37° C., 3 hours; PAGE, UV shadowing, silver staining; also: key: '+' denotes stability; no enzymic degradation
Experimental: as §3

[2] = Stability of nucleic acid-binding oligomers towards proteases and nucleases (overall statements); assay type: in vitro ADME; conditions: 37° C., 3 hours
Experimental: For this purpose, the nucleic acid-binding oligomers were treated-with non-specific and specific proteases, such as, for example, pronase E, proteinase K, trypsin, endoprotease Lys.C, V8 protease, protease IX and protease XXI, nucleases, such as, for example, S1 nuclease and Ba131 nuclease, phosphodiesterase, and cell extracts and organ extracts and blood serum and blood extracts which contain various nucleases and proteases. The oligomers were examined for degradation by polyacrylamide gel electrophoresis and UV shadowing on TLC plates containing UV indicator and by silver-staining the polyacrylamide gels.
Cell extracts from T lymphocytes and blood were also employed for the stability investigations in addition to the purified, defined proteases. For this purpose, 50 ml of cell suspension were centrifuged down at 2000 rpm, taken up in 500 μl of Tris/HCl buffer, pH 7.5; 40 mM CaCl2, and lysed with 5 μl of 20% SDS. Following dialysis against 0.1 M Tris/HCl, pH 7.5; 40 mM CaCl2, and a change of buffer after 4 hours, 5 μl were employed directly in the test. Blood was lysed directly with doubly distilled H2 O and 5 μl were then employed in the test. Bovine serine albumin (BSA) and lysozyme were used as positive controls for digestion by the proteases. […]

Protease XXI = experiment: Stability towards proteases: Protease XXI; assay type: in vitro ADME; conditions: 75 μg of oligomer, 5 μl of protease, 37° C., 3 hours; PAGE, UV shadowing, silver staining; also: key: '+' denotes stability; no enzymic degradation
Experimental: as §3

Bal31 nuclease = experiment: Stability towards nucleases: Bal31 nuclease; assay type: in vitro ADME; conditions: 75 μg of oligomer, 5 μl of nuclease (40 units), 37° C., 3 hours; PAGE, UV shadowing; also: key: '+' denotes stability; no enzymic degradation
Experimental: as §2

[3] = Stability towards proteases: extracts of T-lymphocyte cells; assay type: in vitro ADME; conditions: 75 μg of oligomer, 5 μl of extract, protease buffer, 37° C., 3 hours; also: key: '+' denotes stability; no enzymic degradation
Experimental: (§4) Cell extracts from T lymphocytes and blood were also employed for the stability investigations in addition to the purified, defined proteases. For this purpose, 50 ml of cell suspension were centrifuged down at 2000 rpm, taken up in 500 μl of Tris/HCl buffer, pH 7.5; 40 mM CaCl2, and lysed with 5 μl of 20% SDS. Following dialysis against 0.1 M Tris/HCl, pH 7.5; 40 mM CaCl2, and a change of buffer after 4 hours, 5 μl were employed directly in the test. Blood was lysed directly with doubly distilled H2 O and 5 μl were then employed in the test. Bovine serine albumin (BSA) and lysozyme were used as positive controls for digestion by the proteases.
as §3

[4] = Stability towards nucleases: T-lymphocyte extract; assay type: in vitro ADME; conditions: 75 μg of oligomer, nuclease buffer, 37° C., 3 hours; also: key: '+' denotes stability; no enzymic degradation
Experimental: as §1, §2

[5] = Stability towards proteases: blood extract; assay type: in vitro ADME; conditions: 75 μg of oligomer, 5 μl of lysed blood, protease buffer, 37° C., 3 hours; also: key: '+' denotes stability; no enzymic degradation
Experimental: as §4, §3

Endoprotease LYS--C = Endoprotease LYS--C (Lysobacter enzymogenes, UniProt Q7M135); experiment: Stability towards proteases: Endoprotease LYS--C; assay type: in vitro ADME; conditions: 75 μg of oligomer, 5 μl of protease, 37° C., 3 hours; PAGE, UV shadowing, silver staining; also: key: '+' denotes stability; no enzymic degradation
Endoprotease LYS--C, sequence (Q7M135 whole entry): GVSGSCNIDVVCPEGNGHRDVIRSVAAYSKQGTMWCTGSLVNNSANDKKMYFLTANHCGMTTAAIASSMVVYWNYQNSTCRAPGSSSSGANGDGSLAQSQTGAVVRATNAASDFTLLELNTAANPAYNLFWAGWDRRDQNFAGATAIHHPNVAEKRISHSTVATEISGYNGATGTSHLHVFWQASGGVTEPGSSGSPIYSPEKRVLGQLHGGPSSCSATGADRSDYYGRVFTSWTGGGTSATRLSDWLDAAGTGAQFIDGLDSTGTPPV
Experimental: as §3

S1 nuclease = biological target: T1, S1 nuclease (Aspergillus oryzae, UniProt P24021); experiment: Stability towards nucleases: S1 nuclease; assay type: in vitro ADME; conditions: 75 μg of oligomer, 5 μl of nuclease (40 units), 37° C., 3 hours; PAGE, UV shadowing; also: key: '+' denotes stability; no enzymic degradation
T1 sequence (P24021 21-287): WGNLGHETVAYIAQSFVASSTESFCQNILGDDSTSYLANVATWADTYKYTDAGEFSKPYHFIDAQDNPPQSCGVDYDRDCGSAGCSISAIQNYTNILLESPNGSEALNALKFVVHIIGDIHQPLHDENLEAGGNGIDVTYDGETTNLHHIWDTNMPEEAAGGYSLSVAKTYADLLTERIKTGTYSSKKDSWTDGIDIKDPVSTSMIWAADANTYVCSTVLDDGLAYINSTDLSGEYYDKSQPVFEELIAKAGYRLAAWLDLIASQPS
Experimental: as §2

Protease IX = experiment: Stability towards proteases: Protease IX; assay type: in vitro ADME; conditions: 75 μg of oligomer, 5 μl of protease, 37° C., 3 hours; PAGE, UV shadowing, silver staining; also: key: '+' denotes stability; no enzymic degradation
Experimental: as §3

Pronase E = experiment: Stability towards proteases: Pronase E; assay type: in vitro ADME; conditions: 75 μg of oligomer, 5 μl of protease, 37° C., 3 hours; PAGE, UV shadowing, silver staining; also: key: '+' denotes stability; no enzymic degradation
Experimental: as §3

[6] = test system: double-stranded plasmid DNA containing two poly-adenine sequence regions; experiment: Strand displacement in double-stranded plasmid DNA; conditions: S1 nuclease digestion at high salt concentrations
Experimental: Double-stranded, circular plasmid DNA, which is of 4880 base pairs in length and which contains two poly-adenine sequence regions having at least nine consecutive adenine nucleotides, which sequence regions are at a distance apart of 1150 base pairs, is used in the tests described here.
Subsequently, 4 μl of buffer (250 mM Na acetate, 1 M NaCl, 2.5% glycerol, 5 mM ZnCl2, pH 4.4) were added to all the samples while 1 μl of S1 nuclease from Aspergillus oryzae (from Boehringer Mannheim), having an activity of 10 U/μl, was added to each of samples 2 to 6. After having been incubated at 30° C. for 15 minutes, the samples were placed on ice, 1 μl of 0.5 M EDTA and 3 μl of loading buffer (50% glycerol, 0.25% bromophenol blue in 40 mM Tris/HCl, 20 mM sodium acetate, 1 mM EDTA, pH=7.2) were added, and, without delay, the samples were fractionated electrophoretically on 1.2% agarose gels and, after staining with ethidium bromides, the sizes of the resulting plasmid fragments on the gel were determined by comparison with a molecular weight standard (1-kb ladder, from Gibco-BRL, D-7514 Eggenstein) on a transilluminator using 254 nm UV light.

H--(III T)8 --Ala--OH [H-(IIIT)8 -Ala--OH]
Stability towards blood, nuclease test [1]: + | Stability towards Proteinase K (Proteinase K): + | Stability towards Trypsin (Trypsin): + | Stability towards the proteases and cell extracts which were tested [2]: stable | Stability towards Protease XXI (Protease XXI): + | Stability towards Bal31 nuclease (Bal31 nuclease): + | Stability towards extracts of T-lymphocyte cells (HUT, U 937), protease test [3]: + | Stability towards T-lymphocyte extract, nuclease test [4]: + | Stability towards extract of blood, protease test [5]: + | Stability towards Endoprotease LYS--C (Endoprotease LYS--C): + | Stability towards S1 nuclease (S1 nuclease): + | Stability towards Protease IX (Protease IX): + | Stability towards Pronase E (Pronase E): +

H--(III T)12 --Lys--OH [H-(IIIT)12 -Lys--OH]
Binding to double-stranded DNA (strand displacement), result in words [6]: concentration-dependent and sequence-selective binding | Stability towards blood, nuclease test [1]: + | Stability towards Proteinase K (Proteinase K): + | Stability towards Trypsin (Trypsin): + | Stability towards the proteases and cell extracts which were tested [2]: stable | Stability towards Protease XXI (Protease XXI): + | Stability towards Bal31 nuclease (Bal31 nuclease): + | Stability towards extracts of T-lymphocyte cells (HUT, U 937), protease test [3]: + | Stability towards T-lymphocyte extract, nuclease test [4]: + | Stability towards extract of blood, protease test [5]: + | Stability towards Endoprotease LYS--C (Endoprotease LYS--C): + | Stability towards S1 nuclease (S1 nuclease): + | Stability towards Protease IX (Protease IX): + | Stability towards Pronase E (Pronase E): +
